In one assay the test system is L1210. Description: Cytotoxicity against mouse L1210 cells. The assay is classed as functional, cell-based.
For assay [1], the system named is Vesicular stomatitis virus. The assay is described as follows: Antiviral activity against VSV assessed as reduction in plaque formation at 100 ng. The assay is classed as functional, organism-based.
In assay [2] the test system is Human alphaherpesvirus 1. Description: Antiviral activity against HSV1 assessed as reduction in plaque formation at 100 ug. The format is functional, organism-based.
Assay [3] concerns Human alphaherpesvirus 1. Description: Antiviral activity against HSV1 assessed as reduction in plaque formation at 10 ug. The assay is classed as functional, organism-based.
Assay [4] has as its system Vesicular stomatitis virus. Description: Antiviral activity against VSV assessed as reduction in plaque formation at 30 ng. The assay is classed as functional, organism-based.
Assay [5] deals with Human alphaherpesvirus 1. Description: Antiviral activity against HSV1 assessed as reduction in plaque formation at 30 ng. The assay is classed as functional, organism-based.
Assay [6] relates to P388. The assay is described as follows: In vivo antitumor activity against mouse P388 cells at 15 ug/kg relative to control. The format is functional.
The test system of a further assay is B16. The assay is described as follows: In vivo antitumor activity against mouse B16 cells at 10 ug/kg relative to control. The assay is classed as functional.
The test system of assay [7] is P388. Description: In vivo antitumor activity against mouse P388 cells at 3.8 ug/kg relative to control. The format is functional.
Assay [8] relates to Human alphaherpesvirus 1. Description: Antiviral activity against HSV1 assessed as reduction in plaque formation at 20 ng. The assay is classed as functional, organism-based.
The test system of assay [9] is Human alphaherpesvirus 1. The assay is described as follows: Antiviral activity against HSV1 assessed as reduction in plaque formation at 780 ng. The format is functional, organism-based.
For assay [10], the system named is Vesicular stomatitis virus. The assay is described as follows: Antiviral activity against VSV assessed as reduction in plaque formation at 20 ng. The assay is classed as functional, organism-based.
Assay [11] has as its system P388. Description: In vivo antitumor activity against mouse P388 cells at 250 ug/kg relative to control. The format is functional.
Assay [12] has as its system Vesicular stomatitis virus. Description: Antiviral activity against VSV assessed as reduction in plaque formation at 100 ug. The format is functional, organism-based.

In brackets after ≈: the same amount, converted by molar mass. Activity calls are given as the source filed them. The calls are words filed in the database; no cut-off is given here. Numbered stars: 1 amine (or outer) side, 2 acyl side, 3 side chain; on linkers, the order of the positions; unused ones are H or OH. Bridge positions count the residues as written; N and C are the ends. Square brackets hold non-standard residues; d marks the D form. Peptide text beside a SMILES is read from it. X1 = CC[C@H](C)[C@@H](N[*:1])[C@@H](O)CC(=O)O[C@H](C(=O)[C@H](C)C(=O)[*:2])C(C)C; NMeY = CN[C@@H](Cc1ccc(O)cc1)C(=O)O; dNMeL = CN[C@H](CC(C)C)C(=O)O; Lac = C[C@H](O)C(=O)O

The IC50 is the concentration at which inhibition is half-maximal. Lower therefore signals higher potency. The term T/C denotes the result in the treated group divided by that in the control group, in per cent.

As for `CC[C@H](C)[C@H]1NC(=O)[C@@H](NC(=O)[C@@H](CC(C)C)N(C)C(=O)[C@H](C)O)[C@@H](C)OC(=O)[C@H](Cc2ccc(OC)cc2)N(C)C(=O)[C@@H]2CCCN2C(=O)[C@H](CC(C)C)NC(=O)[C@@H](C)C(=O)[C@H](C(C)C)OC(=O)C[C@@H]1O` [DIDEMNIN C] (H-[Lac][dNMeL]T[X1]LP[NMeY](Me); ester 3-C), the IC50 with L1210 is 11 ng/mL (≈ 10.8 nM).
In the assay on L1210, `CC[C@H](C)[C@@H]1NC(=O)[C@@H](NC(=O)[C@@H](CC(C)C)N(C)C(=O)[C@@H]2CCCN2C(=O)[C@H](C)OC(=O)[C@H](CCC(=O)O)NC(=O)[C@H](CCC(N)=O)NC(=O)[C@@H](N)CCC(N)=O)[C@@H](C)OC(=O)[C@H](Cc2ccc(OC)cc2)N(C)C(=O)[C@@H]2CCCN2C(=O)[C@H](CC(C)C)NC(=O)[C@@H](C)C(=O)[C@H](C(C)C)OC(=O)C[C@@H]1O` [DIDEMNIN E] showed an IC50 of 3 ng/mL (≈ 2 nM).
Still for that read-out and setting: the value for `CC[C@H](C)[C@@H]1NC(=O)[C@@H](NC(=O)[C@@H](CC(C)C)N(C)C=O)[C@@H](C)OC(=O)[C@H](Cc2ccc(OC)cc2)N(C)C(=O)[C@@H]2CCCN2C(=O)[C@H](CC(C)C)NC(=O)[C@@H](C)C(=O)[C@H](C(C)C)OC(=O)C[C@@H]1O` [DIDEMNIN G] was 6 ng/mL (≈ 6.18 nM); that for `CC[C@H](C)[C@@H]1NC(=O)[C@@H](NC(=O)[C@@H](CC(C)C)N(C)C(C)=O)[C@@H](C)OC(=O)[C@H](Cc2ccc(OC)cc2)N(C)C(=O)[C@@H]2CCCN2C(=O)[C@H](CC(C)C)NC(=O)[C@@H](C)C(=O)[C@H](C(C)C)OC(=O)C[C@@H]1O` [N-ACETYLDIDEMNIN A] was 2.4 ng/mL (≈ 2.44 nM).
The same measure, in the same setting: for `CC[C@H](C)[C@H]1NC(=O)[C@@H](NC(=O)[C@@H](CC(C)C)NC)[C@@H](C)OC(=O)[C@H](Cc2ccc(OC)cc2)N(C)C(=O)[C@@H]2CCCN2C(=O)[C@H](CC(C)C)NC(=O)[C@@H](C)C(=O)[C@H](C(C)C)OC(=O)C[C@@H]1O` [DIDEMNIN A] (H-[dNMeL]T[X1]LP[NMeY](Me); ester 2-C) the value was 14 ng/mL (≈ 14.8 nM).
Regarding `CC(=O)O[C@H]1C[C@]2(C)[C@H]3[C@H](O)C(=O)[C@]4(C)[C@@H](c5ccc(=O)oc5)CC[C@]4(O)[C@@H]3CC[C@]2(O)C[C@H]1O`, the result in assay [1] was inactive.
In the case of `Nc1ncnc2c1ncn2[C@@H]1O[C@H](CO)[C@@H](O)[C@@H]1O`, the outcome in the assay on Human alphaherpesvirus 1 [2] was Active. Besides, in the assay with Human alphaherpesvirus 1 [3], the outcome was inactive.
`CCCCCCC[C@@H](O)CC(=O)N[C@@H](CCC(N)=O)C(=O)N[C@@H](CCC(N)=O)C(=O)N[C@@H](CCC(N)=O)C(=O)N[C@@H](CCC(=O)O)C(=O)O[C@@H](C)C(=O)N1CCC[C@H]1C(=O)N(C)[C@H](CC(C)C)C(=O)N[C@@H]1C(=O)N[C@@H]([C@@H](C)CC)[C@@H](O)CC(=O)O[C@@H](C(C)C)C(=O)[C@H](C)C(=O)N[C@@H](CC(C)C)C(=O)N2CCC[C@H]2C(=O)N(C)[C@@H](Cc2ccc(OC)cc2)C(=O)O[C@@H]1C` [DIDEMNIN Y]: in the assay on L1210, the IC50 was 5.6 ng/mL (≈ 3.12 nM).
With `CCC(=O)O[C@@H]1C[C@@]2(O)CC[C@@H]3[C@H]([C@H](O)C(=O)[C@]4(C)[C@@H](c5ccc(=O)oc5)CC[C@]34O)[C@@]2(C)C[C@@H]1OC(C)=O`, the result (in assay [4]; with Human alphaherpesvirus 1 [5]; in assay [1]) was inactive.
For `CC[C@H](C)[C@@H]1NC(=O)[C@@H](NC(=O)[C@@H](CC(C)C)N(C)C(=O)[C@@H]2CCCN2C(=O)[C@H](C)OC(=O)[C@H](CCC(=O)O)NC(=O)[C@H](CCC(N)=O)NC(=O)[C@H](CCC(N)=O)NC(=O)[C@@H](N)CCC(N)=O)[C@@H](C)OC(=O)[C@H](Cc2ccc(OC)cc2)N(C)C(=O)[C@@H]2CCCN2C(=O)[C@H](CC(C)C)NC(=O)[C@@H](C)C(=O)[C@H](C(C)C)OC(=O)C[C@@H]1O` [DIDEMNIN D], in the assay on L1210, half-maximal inhibition (IC50) required 5 ng/mL (≈ 3.08 nM).
As to `CC[C@H](C)[C@@H]1NC(=O)[C@@H](NC(=O)[C@@H](CC(C)C)N(C)C(=O)[C@@H]2CCCN2C(=O)[C@H](C)OC(C)=O)[C@H](C)OC(=O)[C@H](Cc2ccc(OC)cc2)N(C)C(=O)[C@@H]2CCCN2C(=O)[C@H](CC(C)C)NC(=O)[C@@H](C)C(=O)[C@H](C(C)C)OC(=O)C[C@@H]1O` [NORDIDEMNIN B], the IC50 in the assay with L1210 was 7.8 ng/mL (≈ 6.76 nM).
Molecule `COc1cc2c(cc1O)CCN[C@]21CS[C@@H]2c3c(OC(C)=O)c(C)c4c(c3[C@H](COC1=O)N1[C@@H]2[C@H]2c3c(cc(C)c(OC)c3O)C[C@@H]([C@@H]1O)N2C)OCO4` [TRABECTEDIN] gave an IC50 in the assay with L1210 of 0.5 ng/mL (≈ 0.656 nM). Also, in the assay on P388 [6], the T/C was 167%.
Molecule `CC[C@H](C)[C@@H]1NC(=O)[C@@H](NC(=O)[C@@H](CC(C)C)N(C)C(C)=O)[C@@H](C)OC(=O)[C@H](Cc2ccc(OC)cc2)N(C)C(=O)[C@@H]2CCCN2C(=O)[C@H](CC(C)C)NC(=O)[C@@H](C)C(=O)[C@H](C(C)C)OC(=O)C[C@@H]1OC(C)=O` [N,O-DIACETYLDIDEMNIN A] showed an IC50 in the assay on L1210 of 15 ng/mL (≈ 14.6 nM).
The same measure, in the same setting: for `CC[C@H](C)[C@@H]1NC(=O)[C@@H](NC(=O)[C@@H](CC(C)C)N(C)C(=O)[C@@H]2CCCN2C(=O)[C@H](C)OC(C)=O)[C@@H](C)OC(=O)[C@H](Cc2ccc(OC)cc2)N(C)C(=O)[C@@H]2CCCN2C(=O)[C@H](CC(C)C)NC(=O)[C@@H](C)C(=O)[C@H](C(C)C)OC(=O)C[C@@H]1OC(C)=O` the value was 1.6 ng/mL (≈ 1.34 nM).
`CC(=O)O[C@H]1C[C@]2(C)[C@H]3[C@H](O)C(=O)[C@]4(C)[C@@H](c5ccc(=O)oc5)CC[C@]4(O)[C@@H]3CC[C@]2(O)C[C@H]1OC(=O)C(C)C`: the outcome (in assay [4]; in the assay with Human alphaherpesvirus 1 [5]) was inactive.
On to `CC(=O)O[C@@H]1C[C@@]2(O)CC[C@@H]3[C@H]([C@H](O)C(=O)[C@]4(C)[C@@H](c5ccc(=O)oc5)CC[C@]34O)[C@@]2(C)C[C@@H]1O`, for which the result in assay [1] was inactive.
Consider `COc1cc2c(cc1O)CCN[C@]21CS[C@@H]2c3c(OC(C)=O)c(C)c4c(c3[C@H](COC1=O)N1[C@@H]2[C@@H]2N[C@@H](Cc3cc(C)c(OC)c(O)c32)[C@@H]1O)OCO4` [ECTEINASCIDIN 729], for which the T/C was determined as 246% with B16 and 214% in the assay with P388 [7].
In the assay on L1210, `CCCCCCC[C@@H](O)CC(=O)N[C@@H](CCC(N)=O)C(=O)N[C@@H](CCC(N)=O)C(=O)N[C@@H](CCC(=O)O)C(=O)O[C@@H](C)C(=O)N1CCC[C@H]1C(=O)N(C)[C@H](CC(C)C)C(=O)N[C@@H]1C(=O)N[C@@H]([C@@H](C)CC)[C@@H](O)CC(=O)O[C@@H](C(C)C)C(=O)[C@H](C)C(=O)N[C@@H](CC(C)C)C(=O)N2CCC[C@H]2C(=O)N(C)[C@@H](Cc2ccc(OC)cc2)C(=O)O[C@@H]1C` [DIDEMNIN X] displayed an IC50 of 4.4 ng/mL (≈ 2.64 nM).
Regarding `CC(=O)O[C@H]1C[C@]2(C)[C@H]3[C@H](O)C(=O)[C@]4(C)[C@@H](c5ccc(=O)oc5)CC[C@]4(O)[C@@H]3CC[C@]2(O)C[C@H]1OC(C)=O`, in the assay on Human alphaherpesvirus 1 [8], the result was inactive. The result with Human alphaherpesvirus 1 [9] was Active. For the same molecule, the AC50 entry in assay [10] was “Not Active”.
On to `Nc1nc2c(ncn2COCCO)c(=O)[nH]1`, for which the outcome in the assay with Human alphaherpesvirus 1 [2] and with Human alphaherpesvirus 1 [3] was Active.
In the assay with L1210, `CC[C@H](C)[C@@H]1NC(=O)[C@@H](NC(=O)[C@@H](CC(C)C)NC)[C@@H](C)OC(=O)[C@H](Cc2ccc(OC)cc2)N(C)C(=O)[C@@H]2CCCN2C(=O)[C@H](CC(C)C)NC(=O)[C@@H](C)C(O)[C@H](C(C)C)OC(=O)C[C@@H]1O` (some centres undefined) [DIHYDRODIDEMNIN A] yielded an IC50 of 520 ng/mL (≈ 550 nM).
Same read-out and setting: for `CC[C@H](C)[C@@H]1NC(=O)[C@@H](N2CN(C)[C@H](CC(C)C)C2=O)[C@@H](C)OC(=O)[C@H](Cc2ccc(OC)cc2)N(C)C(=O)[C@@H]2CCCN2C(=O)[C@H](CC(C)C)NC(=O)[C@@H](C)C(=O)[C@H](C(C)C)OC(=O)C[C@@H]1O` [METHYLENE DIDEMNIN A] the value was 6.5 ng/mL (≈ 6.8 nM).
`COc1cc2c(cc1O)CCN[C@]21CS[C@@H]2c3c(OC(C)=O)c(C)c4c(c3[C@H](COC1=O)N1C[C@@H]3Cc5cc(C)c(OC)c(O)c5[C@H]([C@H]21)N3C)OCO4` [ECTEINASCIDIN 745] showed an IC50 in the assay with L1210 of 88 ng/mL (≈ 118 nM). The molecule also had a T/C in the assay on P388 [11] of 111%.
With `NC(=O)c1ncn([C@@H]2O[C@H](CO)[C@@H](O)[C@H]2O)n1`, in assay [12], the outcome was Active.

Values taken from ChEMBL document CHEMBL1137795, “Bioactive compounds from aquatic and terrestrial sources” (J Nat Prod, 1990).
